Reference: ChEMBL document CHEMBL5500377, “Design, synthesis and molecular modeling of novel D-ring substituted steroidal 4,5-dihydropyrazole thiazolinone derivatives as anti-inflammatory agents by inhibition of COX-2/iNOS production and down-regulation of NF-κB/MAPKs in LPS-induced RAW264.7 macrophage cells” (Eur J Med Chem, 2024)
pIC50: −log10 of the molar value. One block for each compound: values may come before it. Active and inactive are the calls of the source. The rule behind the calls is not given here.

Key:
RAW264.7 [1] = assay: Anti-inflammatory activity against mouse RAW264.7 cells assessed as inhibition of LPS-induced NO production at 5 uM measured after 24 hrs incubation by Griess assay relative to control; assay type: functional
[2] = Cytotoxicity against mouse RAW264.7 cells assessed as cell viability at 5 uM measured after 24 hrs incubation by MTT assay relative to control; assay type: toxicity, cell-based; conditions: read-out: Activity
RAW264.7 [3] = assay: Anti-inflammatory activity against mouse RAW264.7 cells assessed as inhibition of LPS-induced NO production measured after 24 hrs incubation by Griess assay; assay type: functional, cell-based; conditions: RAW264.7, 24 h
BV-2 = assay: Anti-inflammatory activity against […] assessed as inhibition of LPS-induced NO production at 2.5 to 20 uM measured after 24 hrs incubation by Griess assay; assay type: functional, cell-based; conditions: dose 2.5-20 µM
RAW264.7 [4] = assay: Anti-inflammatory activity against mouse RAW264.7 cells assessed as inhibition of LPS-induced TNFalpha level at 2.5 uM pretreated for 1 hr followed by induced with LPS measured after 24 hrs by ELISA (reference value: 0.61 ng/ml); assay type: functional; conditions: time 25 hrs
RAW264.7 [5] = assay: Anti-inflammatory activity against mouse RAW264.7 cells assessed as inhibition of LPS-induced TNFalpha level at 5 uM pretreated for 1 hr followed by induced with LPS measured after 24 hrs by ELISA (reference value: 0.61 ng/ml); assay type: functional; conditions: time 25 hrs
RAW264.7 [6] = assay: Anti-inflammatory activity against mouse RAW264.7 cells assessed as inhibition of LPS-induced TNFalpha level at 10 uM pretreated for 1 hr followed by induced with LPS measured after 24 hrs by ELISA (reference value: 0.61 ng/ml); assay type: functional; conditions: time 25 hrs
RAW264.7 [7] = assay: Anti-inflammatory activity against mouse RAW264.7 cells assessed as inhibition of LPS-induced TNFalpha level at 20 uM pretreated for 1 hr followed by induced with LPS measured after 24 hrs by ELISA (reference value: 0.61 ng/ml); assay type: functional; conditions: time 25 hrs
RAW264.7 [8] = assay: Anti-inflammatory activity against mouse RAW264.7 cells assessed as inhibition of LPS-induced COX2 level at 2.5 uM pretreated for 1 hr followed by induced with LPS measured after 24 hrs by ELISA (reference value: 95.38 pg/ml); assay type: functional; conditions: time 25 hrs
RAW264.7 [9] = assay: Anti-inflammatory activity against mouse RAW264.7 cells assessed as inhibition of LPS-induced COX2 level at 5 uM pretreated for 1 hr followed by induced with LPS measured after 24 hrs by ELISA (reference value: 95.38 pg/ml); assay type: functional; conditions: time 25 hrs
RAW264.7 [10] = assay: Anti-inflammatory activity against mouse RAW264.7 cells assessed as inhibition of LPS-induced COX2 level at 10 uM pretreated for 1 hr followed by induced with LPS measured after 24 hrs by ELISA (reference value: 95.38 pg/ml); assay type: functional; conditions: time 25 hrs
RAW264.7 [11] = assay: Anti-inflammatory activity against mouse RAW264.7 cells assessed as inhibition of LPS-induced COX2 level at 20 uM pretreated for 1 hr followed by induced with LPS measured after 24 hrs by ELISA (reference value: 95.38 pg/ml); assay type: functional; conditions: time 25 hrs
RAW264.7 [12] = assay: Anti-inflammatory activity against mouse RAW264.7 cells assessed as inhibition of LPS-induced TNFalpha level pretreated for 1 hr followed by induced with LPS measured after 24 hrs by ELISA; assay type: functional, cell-based; conditions: dose 2.5-20 µM, time 25.0 hrs
RAW264.7 [13] = assay: Anti-inflammatory activity against mouse RAW264.7 cells assessed as inhibition of LPS-induced COX2 level pretreated for 1 hr followed by induced with LPS measured after 24 hrs by ELISA; assay type: functional, cell-based; conditions: dose 2.5-20 µM, time 25.0 hrs
RAW264.7 [14] = assay: Anti-inflammatory activity against mouse RAW264.7 cells assessed as inhibition of LPS-induced TNFalpha mRNA level pretreated for 1 hr followed by induced with LPS measured after 6 hrs by quantitative RT-PCR analysis; assay type: functional, cell-based; conditions: dose 2.5-20 µM, time 7.0 hrs
RAW264.7 [15] = assay: Anti-inflammatory activity against mouse RAW264.7 cells assessed as inhibition of LPS-induced iNOS mRNA level pretreated for 1 hr followed by induced with LPS measured after 6 hrs by quantitative RT-PCR analysis; assay type: functional, cell-based; conditions: dose 2.5-20 µM, time 7.0 hrs
RAW264.7 [16] = assay: Anti-inflammatory activity against mouse RAW264.7 cells assessed as inhibition of LPS-induced IL-6 mRNA level pretreated for 1 hr followed by induced with LPS measured after 6 hrs by quantitative RT-PCR analysis; assay type: functional, cell-based; conditions: dose 2.5-20 µM, time 7.0 hrs
RAW264.7 [17] = assay: Anti-inflammatory activity against mouse RAW264.7 cells assessed as inhibition of LPS-induced COX2 mRNA level pretreated for 1 hr followed by induced with LPS measured after 6 hrs by quantitative RT-PCR analysis; assay type: functional, cell-based; conditions: dose 2.5-20 µM, time 7.0 hrs
RAW264.7 [18] = assay: Anti-inflammatory activity against mouse RAW264.7 cells assessed as inhibition of LPS-induced iNOS level pretreated for 1 hr followed by induced with LPS measured after 24 hrs by Western blot analysis; assay type: functional, cell-based; conditions: dose 2.5-10 µM, time 25.0 hrs
RAW264.7 [19] = assay: Anti-inflammatory activity against mouse RAW264.7 cells assessed as inhibition of LPS-induced COX2 level pretreated for 1 hr followed by induced with LPS measured after 24 hrs by Western blot analysis; assay type: functional, cell-based; conditions: dose 2.5-10 µM, time 25.0 hrs
RAW264.7 [20] = assay: Anti-inflammatory activity against mouse RAW264.7 cells assessed as inhibition of LPS-induced activation of NF-kappaB p65 by measuring phosphorylation pretreated for 1 hr followed by induced with LPS measured after 24 hrs by Western blot analysis; assay type: functional, cell-based; conditions: dose 2.5-10 µM, time 25.0 hrs
RAW264.7 [21] = assay: Inhibition of LPS-induced translocation of NFkappaB p65 heterodimer into nucleus in mouse RAW264.7 cells at 2.5 to 10 uM pretreated for 1 hr followed by induced with LPS measured after 24 hrs by Western blot analysis; assay type: subcellular; conditions: dose 2.5-10 µM, time 25.0 hrs
RAW264.7 [22] = assay: Reduction in LPS-induced nuclear p65 level in mouse RAW264.7 cells at 2.5 to 10 uM pretreated for 1 hr followed by induced with LPS measured after 24 hrs by Western blot analysis; assay type: functional, cell-based; conditions: dose 2.5-10 µM, time 25.0 hrs
RAW264.7 [23] = assay: Inhibition of LPS-induced NFkappaB p65 translocation from cytosol to nucleus in mouse RAW264.7 cells at 2.5 to 10 uM pretreated for 1 hr followed by induced with LPS measured after 24 hrs by Western blot analysis; assay type: subcellular; conditions: dose 2.5-10 µM, time 25.0 hrs
[24] = biological target: c-Jun N-terminal kinase (Mus musculus) (UniProt Q91Y86+Q9WTU6+Q61831); assay: Inhibition of LPS-induced JNK phosphorylation in mouse RAW264.7 cells at 2.5 to 10 uM pretreated for 1 hr followed by induced with LPS measured after 24 hrs by Western blot analysis; assay type: cell-based; conditions: dose 2.5-10 µM, time 25.0 hrs
Chain of c-Jun N-terminal kinase (Mus musculus) (Q61831 whole entry, looked up): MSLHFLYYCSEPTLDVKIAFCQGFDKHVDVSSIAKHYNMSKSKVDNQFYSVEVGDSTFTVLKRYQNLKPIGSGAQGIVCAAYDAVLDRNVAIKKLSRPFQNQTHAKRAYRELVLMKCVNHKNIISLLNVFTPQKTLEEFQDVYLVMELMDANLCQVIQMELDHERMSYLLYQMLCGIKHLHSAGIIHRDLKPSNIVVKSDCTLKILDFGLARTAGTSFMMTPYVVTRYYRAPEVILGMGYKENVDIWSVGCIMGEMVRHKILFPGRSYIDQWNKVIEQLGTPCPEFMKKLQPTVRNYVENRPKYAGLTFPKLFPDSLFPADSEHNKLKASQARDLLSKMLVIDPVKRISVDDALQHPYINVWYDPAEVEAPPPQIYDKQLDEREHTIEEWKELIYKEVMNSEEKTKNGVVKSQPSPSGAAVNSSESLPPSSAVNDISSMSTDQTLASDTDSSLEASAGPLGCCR
Chain of c-Jun N-terminal kinase (Mus musculus) (Q91Y86 whole entry, looked up): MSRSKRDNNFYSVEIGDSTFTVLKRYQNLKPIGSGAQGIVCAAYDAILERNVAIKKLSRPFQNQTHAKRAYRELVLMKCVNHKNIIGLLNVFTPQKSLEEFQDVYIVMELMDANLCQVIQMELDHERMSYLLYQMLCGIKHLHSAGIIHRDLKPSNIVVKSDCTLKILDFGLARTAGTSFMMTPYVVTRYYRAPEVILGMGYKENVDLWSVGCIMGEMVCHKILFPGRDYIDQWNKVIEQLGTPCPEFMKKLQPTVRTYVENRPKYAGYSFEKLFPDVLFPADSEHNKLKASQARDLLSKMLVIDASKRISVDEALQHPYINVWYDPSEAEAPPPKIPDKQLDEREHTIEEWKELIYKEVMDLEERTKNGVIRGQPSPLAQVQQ
Chain of c-Jun N-terminal kinase (Mus musculus) (Q9WTU6 whole entry, looked up): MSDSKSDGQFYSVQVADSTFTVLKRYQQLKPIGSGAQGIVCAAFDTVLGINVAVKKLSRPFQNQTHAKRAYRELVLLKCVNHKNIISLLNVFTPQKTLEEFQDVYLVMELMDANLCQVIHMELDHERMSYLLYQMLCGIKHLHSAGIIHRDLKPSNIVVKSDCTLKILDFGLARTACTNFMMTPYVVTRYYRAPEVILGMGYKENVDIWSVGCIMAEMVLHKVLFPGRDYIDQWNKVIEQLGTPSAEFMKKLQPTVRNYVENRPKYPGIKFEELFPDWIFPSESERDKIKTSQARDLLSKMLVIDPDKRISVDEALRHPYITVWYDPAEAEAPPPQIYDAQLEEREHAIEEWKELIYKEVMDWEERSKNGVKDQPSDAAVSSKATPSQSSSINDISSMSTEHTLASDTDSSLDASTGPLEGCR

RAW264.7 [25] = assay: Inhibition of LPS-induced ERK phosphorylation in mouse RAW264.7 cells at 2.5 to 10 uM pretreated for 1 hr followed by induced with LPS measured after 24 hrs by Western blot analysis; assay type: cell-based; conditions: dose 2.5-10 µM, time 25.0 hrs
[26] = biological target: MAP kinase p38 (Mus musculus) (UniProt P47811+O08911+Q9WUI1+Q9Z1B7); assay: Inhibition of LPS-induced p38 MAPK phosphorylation in mouse RAW264.7 cells at 2.5 to 10 uM pretreated for 1 hr followed by induced with LPS measured after 24 hrs by Western blot analysis; assay type: cell-based; conditions: dose 2.5-10 µM, time 25.0 hrs
RAW264.7 [27] = assay: Inhibition of JNK protein level in LPS-induced mouse RAW264.7 cells at 2.5 to 10 uM pretreated for 1 hr followed by induced with LPS measured after 24 hrs by Western blot analysis; assay type: functional, cell-based; conditions: dose 2.5-10 µM, time 25.0 hrs
RAW264.7 [28] = assay: Inhibition of ERK protein level in LPS-induced mouse RAW264.7 cells at 2.5 to 10 uM pretreated for 1 hr followed by induced with LPS measured after 24 hrs by Western blot analysis; assay type: functional, cell-based; conditions: dose 2.5-10 µM, time 25.0 hrs
RAW264.7 [29] = assay: Inhibition of p38 MAPK protein level in LPS-induced mouse RAW264.7 cells at 2.5 to 10 uM pretreated for 1 hr followed by induced with LPS measured after 24 hrs by Western blot analysis; assay type: functional, cell-based; conditions: dose 2.5-10 µM, time 25.0 hrs

- pIC50 (RAW264.7 [3]): 5.37
SMILES: C[C@]12CC[C@H]3[C@@H](CC=C4C[C@@H](O)CC[C@@]43C)[C@@H]1CC[C@@H]2C1=NN(C2=NC(=O)CS2)C(c2ccc(F)cc2)C1 (stereo partly drawn)
- inhibition at 5 µM (RAW264.7 [1]): 44.7%
- viability at 24 h, 5 µM [2]: 90.9%

- pIC50 (RAW264.7 [3]): 4.91
SMILES: C[C@]12CC[C@H]3[C@@H](CC=C4C[C@@H](O)CC[C@@]43C)[C@@H]1CC[C@@H]2C1=NN(C2=NC(=O)CS2)C(c2ccccc2Cl)C1 (stereo partly drawn)
- inhibition at 5 µM (RAW264.7 [1]): 52.6%
- viability at 24 h, 5 µM [2]: 81.1%

SMILES: C[C@]12CC[C@H]3[C@@H](CC=C4C[C@@H](O)CC[C@@]43C)[C@@H]1CC[C@@H]2C1=NN(C2=NC(=O)CS2)C(c2ccccc2OCc2ccccc2)C1 (stereo partly drawn)
- inhibition at 5 µM (RAW264.7 [1]): 48.2%
- viability at 24 h, 5 µM [2]: 69%

- pIC50 (RAW264.7 [3]): 5.63
- inhibition (RAW264.7 [21]): Active
- inhibition (RAW264.7 [23]): Active
- inhibition [24]: Active
- inhibition [26]: Active
SMILES: C[C@]12CC[C@H]3[C@@H](CC=C4C[C@@H](O)CC[C@@]43C)[C@@H]1CC[C@@H]2C1=NN(C2=NC(=O)CS2)C(c2cccc(F)c2)C1 (stereo partly drawn)
- inhibition at 5 µM (RAW264.7 [1]): 45.4%
- viability at 24 h, 5 µM [2]: 97.4%
- inhibition (BV-2): Active
- Activity (RAW264.7 [4]): 0.51 ng/mL
- Activity (RAW264.7 [5]): 0.42 ng/mL
- Activity (RAW264.7 [6]): 0.33 ng/mL
- Activity (RAW264.7 [7]): 0.3 ng/mL
- Activity (RAW264.7 [8]): 0.0824 ng/mL
- Activity (RAW264.7 [9]): 0.0624 ng/mL
- Activity (RAW264.7 [10]): 0.0428 ng/mL
- Activity (RAW264.7 [11]): 0.0378 ng/mL
- inhibition (RAW264.7 [12]): Dose-Dependent Effect
- inhibition (RAW264.7 [13]): Dose-Dependent Effect
- inhibition (RAW264.7 [14]): Dose-Dependent Effect
- inhibition (RAW264.7 [15]): Dose-Dependent Effect
- inhibition (RAW264.7 [16]): Dose-Dependent Effect
- inhibition (RAW264.7 [17]): Dose-Dependent Effect
- inhibition (RAW264.7 [18]): Dose-Dependent Effect
- inhibition (RAW264.7 [19]): Dose-Dependent Effect
- inhibition (RAW264.7 [20]): Dose-Dependent Effect
- inhibition (RAW264.7 [22]): Active
- inhibition (RAW264.7 [25]): Active
- Activity (RAW264.7 [27]): inactive
- inhibition (RAW264.7 [28]): inactive
- Activity (RAW264.7 [29]): inactive

SMILES: C[C@]12CC[C@H]3[C@@H](CC=C4C[C@@H](O)CC[C@@]43C)[C@@H]1CC[C@@H]2C1=NN(C2=NC(=O)CS2)C(c2ccc(S(C)(=O)=O)cc2)C1 (stereo partly drawn)
- inhibition at 5 µM (RAW264.7 [1]): 47.3%
- viability at 24 h, 5 µM [2]: 74.5%

SMILES: Cc1ccc(C2CC([C@H]3CC[C@H]4[C@@H]5CC=C6C[C@@H](O)CC[C@]6(C)[C@H]5CC[C@]34C)=NN2C2=NC(=O)CS2)cc1 (stereo partly drawn)
- inhibition at 5 µM (RAW264.7 [1]): 35.4%
- viability at 24 h, 5 µM [2]: 88.5%

SMILES: COc1ccccc1C1CC([C@H]2CC[C@H]3[C@@H]4CC=C5C[C@@H](O)CC[C@]5(C)[C@H]4CC[C@]23C)=NN1C1=NC(=O)CS1 (stereo partly drawn)
- inhibition at 5 µM (RAW264.7 [1]): 55.5%
- viability at 24 h, 5 µM [2]: 70%

SMILES: CSc1ccc(C2CC([C@H]3CC[C@H]4[C@@H]5CC=C6C[C@@H](O)CC[C@]6(C)[C@H]5CC[C@]34C)=NN2C2=NC(=O)CS2)cc1 (stereo partly drawn)
- inhibition at 5 µM (RAW264.7 [1]): 45.2%
- viability at 24 h, 5 µM [2]: 82.2%

SMILES: CCc1ccc(C2CC([C@H]3CC[C@H]4[C@@H]5CC=C6C[C@@H](O)CC[C@]6(C)[C@H]5CC[C@]34C)=NN2C2=NC(=O)CS2)cc1 (stereo partly drawn)
- inhibition at 5 µM (RAW264.7 [1]): 39.9%
- viability at 24 h, 5 µM [2]: 82.8%
